From patent US11918582B2 (RAPT Therapeutics, Inc., priority 2021, dated 2024)
Counter-ions that a name gives are not always drawn.

Molecular target: T1, human HPK1 (MAP4K1) (Homo sapiens, UniProt Q92918)
T1 construct: Recombinant human HPK1 kinase domain was obtained from ThermoFisher (Cat. #PV6357) and SignalChem (Cat. #M23-11G); purchased ThermoFisher; SignalChem PV6357; M23-11G
T1 sequence (Q92918 17-274 limits assumed): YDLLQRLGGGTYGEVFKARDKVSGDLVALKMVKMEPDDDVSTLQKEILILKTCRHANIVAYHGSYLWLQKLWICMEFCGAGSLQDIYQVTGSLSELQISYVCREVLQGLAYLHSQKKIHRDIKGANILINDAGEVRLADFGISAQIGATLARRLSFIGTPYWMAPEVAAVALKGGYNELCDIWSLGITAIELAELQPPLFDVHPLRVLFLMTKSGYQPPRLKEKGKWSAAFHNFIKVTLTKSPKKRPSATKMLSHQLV
Experiment: Biochemical assay for activity against HPK1 (ADP-Glo, MBP substrate)
Conditions: recombinant human HPK1 kinase domain, 1 nM enzyme, ADP-Glo luminescence
Procedure, shortened: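 Recombinant human HPK1 kinase domain (1 nM solution) preincubated 15 min at room temperature with compounds in pH 7.5 HEPES buffer with NaCl, TCEP, MgCl2, Tween-20, BSA. MBP substrate with ATP added, reaction run 2 h at room temperature. ADP formation read by ADP-Glo luminescence to give IC50.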

Row | IC50 | SMILES
1 | 100 to 250 nM | COc1cc2c(cc1Nc1ncc3cnn([C@H]4C[C@@H](CNS(C)(=O)=O)C4)c3n1)CN(C)CC2 [Example 125, N-((cis-3-(6-((6-methoxy-2-methyl-1,2,3,4-tetrahydroisoquinolin-7-yl)amino)-1H-pyrazolo[3,4-d]pyrimidin-1-yl)cyclobutyl)methyl)methanesulfonamide]
2 | < 100 nM | CC(C)n1ncc2cnc(Nc3ccc4c(c3)CN(C)CC4)nc21 [Example 101, N-(1-isopropyl-1H-pyrazolo[3,4-d]pyrimidin-6-yl)-2-methyl-1,2,3,4-tetrahydroisoquinolin-7-amine]
3 | < 100 nM | COc1cc2c(cc1Nc1ncc3cnn([C@H]4CC[C@H](NC(=O)CO)CC4)c3n1)CN(C)CC2 [Example 74, trans-2-hydroxy-N-[4-[6-[(6-methoxy-2-methyl-3,4-dihydro-1H-isoquinolin-7-yl)amino]pyrazolo[3,4-d]pyrimidin-1-yl]cyclohexyl]acetamide]
4 | < 100 nM | COc1cc2c(cc1Nc1ncc3c(C)nn([C@H]4CC[C@@H](CO)CC4)c3n1)CN(C)CC2 [Example 78, cis-[4-[6-[(6-methoxy-2-methyl-3,4-dihydro-1H-isoquinolin-7-yl)amino]-3-methyl-pyrazolo[3,4-d]pyrimidin-1-yl]cyclohexyl]methanol]
5 | < 100 nM | COc1cc2c(cc1Nc1ncc3cnn(C[C@@H]4CC[C@H](O)CN4C(C)=O)c3n1)CN(C)CC2 [Example 224, 1-((2S,5S)-5-hydroxy-2-((6-((6-methoxy-2-methyl-1,2,3,4-tetrahydroisoquinolin-7-yl)amino)-1H-pyrazolo[3,4-d]pyrimidin-1-yl)methyl)piperidin-1-yl)ethan-1-one]
6 | < 100 nM | COc1cc2c(cc1Nc1ncc3cnn([C@@H](C)CCO)c3n1)CN(C)CC2 [Example 100]
7 | < 100 nM | C=CCCN1CCc2ccc(Nc3ncc4cnn(CCC=C)c4n3)cc2C1 [Example 18, 2-(but-3-en-1-yl)-N-(1-(but-3-en-1-yl)-1H-pyrazolo[3,4-d]pyrimidin-6-yl)-1,2,3,4-tetrahydroisoquinolin-7-amine]
8 | < 100 nM | COc1cc2c(cc1Nc1ncc3cnn(CCCO)c3n1)CN(C)CC2 [Example 96, 3-[6-[(6-methoxy-2-methyl-3,4-dihydro-1H-isoquinolin-7-yl)amino]pyrazolo[3,4-d]pyrimidin-1-yl]propan-1-ol]
9 | 100 to 250 nM | COC(=O)NCCn1ncc2cnc(Nc3cc4c(cc3OC)CCN(C)C4)nc21 [Example 89, methyl N-[2-[6-[(6-methoxy-2-methyl-3,4-dihydro-1H-isoquinolin-7-yl)amino]pyrazolo[3,4-d]pyrimidin-1-yl]ethyl]carbamate]
10 | 100 to 250 nM | COc1cc2c(cc1Nc1ncc3cnn(CCN(C)S(C)(=O)=O)c3n1)CN(C)CC2 [Example 92, N-[2-[6-[(6-methoxy-2-methyl-3,4-dihydro-1H-isoquinolin-7-yl)amino]pyrazolo[3,4-d]pyrimidin-1-yl]ethyl]-N-methyl-methanesulfonamide]
11 | 100 to 250 nM | COc1cc2c(cc1Nc1ncc3cnn([C@H]4CC[C@H](C(=O)O)C4)c3n1)CN(C)CC2 (racemic) [Example 41, rac-(1S,3S)-3-(6-((6-methoxy-2-methyl-1,2,3,4-tetrahydroisoquinolin-7-yl)amino)-1H-pyrazolo[3,4-d]pyrimidin-1-yl)cyclopentane-1-carboxylic acid]
12 | < 100 nM | COc1cc2c(cc1Nc1ncc3cnn([C@H]4CC[C@H](CO)CC4)c3n1)CN(CCF)CC2 [Example 169, [4-[6-[[2-(2-fluoroethyl)-6-methoxy-3,4-dihydro-1H-isoquinolin-7-yl]amino]pyrazolo[3,4-d]pyrimidin-1-yl]cyclohexyl]methanol]
13 | 100 to 250 nM | COc1cc2c(cc1Nc1ncc3cnn(C[C@@H]4C[C@H](C)CN4C(C)=O)c3n1)CN(C)CC2 [Example 136, 1-((2S,4S)-2-((6-((6-methoxy-2-methyl-1,2,3,4-tetrahydroisoquinolin-7-yl)amino)-1H-pyrazolo[3,4-d]pyrimidin-1-yl)methyl)-4-methylpyrrolidin-1-yl)ethan-1-one]
14 | < 100 nM | COc1cc2c(cc1Nc1ncc3cnn(C[C@@H]4CCCN4C(C)=O)c3n1)[C@H](C)N(C)CC2 [Example 185, 1-((S)-2-((6-(((S)-6-methoxy-1,2-dimethyl-1,2,3,4-tetrahydroisoquinolin-7-yl)amino)-1H-pyrazolo[3,4-d]pyrimidin-1-yl)methyl)pyrrolidin-1-yl)ethan-1-one hydrochloride]
15 | < 100 nM | COc1cc2c(cc1Nc1ncc3cnn(C[C@H]4CC[C@H](O)CC4)c3n1)CN(C)CC2 [Example 199, (trans)-4-((6-((6-methoxy-2-methyl-1,2,3,4-tetrahydroisoquinolin-7-yl)amino)-1H-pyrazolo[3,4-d]pyrimidin-1-yl)methyl)cyclohexan-1-ol hydrochloride]
16 | < 100 nM | COC[C@H]1CC[C@H](n2ncc3cnc(Nc4cc5c(cc4OC)CCN(C)C5)nc32)CC1 [Example 175, 6-methoxy-N-[trans-1-[4-(methoxymethyl)cyclohexyl]pyrazolo[3,4-d]pyrimidin-6-yl]-2-methyl-3,4-dihydro-1H-isoquinolin-7-amine]
17 | < 100 nM | CN1CCc2ccc(Nc3ncc4cnn([C@@H]5CCOC5)c4n3)cc2C1 [Example 20, (R)-2-methyl-N-(1-(tetrahydrofuran-3-yl)-1H-pyrazolo[3,4-d]pyrimidin-6-yl)-1,2,3,4-tetrahydroisoquinolin-7-amine]
18 | < 100 nM | CN1CCc2ccc(Nc3ncc4cnn(CCN5CCCS5(=O)=O)c4n3)cc2C1 [Example 4, N-[1-[2-(1,1-dioxo-1,2-thiazolidin-2-yl)ethyl]pyrazolo[3,4-d]pyrimidin-6-yl]-2-methyl-3,4-dihydro-1H-isoquinolin-7-amine trifluoroacetate]
19 | < 100 nM | COc1nc2c(cc1Nc1ncc3cnn([C@@H]4CCC[C@@H](C(N)=O)C4)c3n1)CN(C)CC2 [Example 181, (1R,3R)-3-(6-((2-methoxy-6-methyl-5,6,7,8-tetrahydro-1,6-naphthyridin-3-yl)amino)-1H-pyrazolo[3,4-d]pyrimidin-1-yl)cyclohexane-1-carboxamide Mesylate]
20 | < 100 nM | COC(=O)N1CCC[C@H]1Cn1ncc2cnc(Nc3cc4c(cc3OC)CCN(C)C4)nc21 [Example 113, methyl (S)-2-((6-((6-methoxy-2-methyl-1,2,3,4-tetrahydroisoquinolin-7-yl)amino)-1H-pyrazolo[3,4-d]pyrimidin-1-yl)methyl)pyrrolidine-1-carboxylate trifluoroacetate]
21 | < 100 nM | CN1CCc2ccc(Nc3ncc4cnn([C@H]5CC[C@H](C(=O)O)CC5)c4n3)cc2C1 [Example 32, (1r,4r)-4-(6-((2-methyl-1,2,3,4-tetrahydroisoquinolin-7-yl)amino)-1H-pyrazolo[3,4-d]pyrimidin-1-yl)cyclohexane-1-carboxylic acid]
22 | < 100 nM | COc1cc2c(cc1Nc1ncc3cnn([C@H]4CC[C@H](NC(C)=O)CC4)c3n1)CN(C)CC2 [Example 69, trans-N-[4-[6-[(6-methoxy-2-methyl-3,4-dihydro-1H-isoquinolin-7-yl)amino]pyrazolo[3,4-d]pyrimidin-1-yl]cyclohexyl]acetamide]
23 | 100 to 250 nM | COc1cc2c(cc1Nc1ncc3cnn(C[C@@H]4CCN4C(C)=O)c3n1)CN(C)CC2 [Example 133, (S)-1-(2-((6-((6-methoxy-2-methyl-1,2,3,4-tetrahydroisoquinolin-7-yl)amino)-1H-pyrazolo[3,4-d]pyrimidin-1-yl)methyl)azetidin-1-yl)ethan-1-one]
24 | < 100 nM | CN1CCc2c(cc(Nc3ncc4cnn([C@@H]5CCC[C@@H](C(N)=O)C5)c4n3)cc2C(F)(F)F)C1 [Example 180, (1R,3R)-3-(6-((2-methyl-5-(trifluoromethyl)-1,2,3,4-tetrahydroisoquinolin-7-yl)amino)-1H-pyrazolo[3,4-d]pyrimidin-1-yl)cyclohexane-1-carboxamide]
25 | < 100 nM | CN1CCc2ccc(Nc3ncc4cnn(C5CC6(COC6)C5)c4n3)cc2C1 [Example 13, N-(1-(2-oxaspiro[3.3]heptan-6-yl)-1H-pyrazolo[3,4-d]pyrimidin-6-yl)-2-methyl-1,2,3,4-tetrahydroisoquinolin-7-amine]
26 | < 100 nM | COc1cc2c(cc1Nc1ncc3cnn([C@H]4CC[C@@H](C(N)=O)CC4)c3n1)CN(C)CC2 [Example 27, (1s,4s)-4-(6-((6-methoxy-2-methyl-1,2,3,4-tetrahydroisoquinolin-7-yl)amino)-1H-pyrazolo[3,4-d]pyrimidin-1-yl)cyclohexane-1-carboxamide]
27 | < 100 nM | COc1cc2c(cc1Nc1ncc3c(C)nn([C@H]4CC[C@H](CO)CC4)c3n1)CN(C)CC2 [Example 68, trans-[4-[6-[(6-methoxy-2-methyl-3,4-dihydro-1H-isoquinolin-7-yl)amino]-3-methyl-pyrazolo[3,4-d]pyrimidin-1-yl]cyclohexyl]methanol]
28 | < 100 nM | CN1CCc2c(cc(Nc3ncc4cnn([C@H]5CC[C@H](O)CC5)c4n3)cc2C(F)(F)F)C1 [Example 58, (1r,4r)-4-(6-((2-methyl-5-(trifluoromethyl)-1,2,3,4-tetrahydroisoquinolin-7-yl)amino)-1H-pyrazolo[3,4-d]pyrimidin-1-yl)cyclohexan-1-ol]
29 | < 100 nM | COc1cc2c(cc1Nc1ncc3cnn([C@H]4CC[C@H](C(=O)N(C)C)CC4)c3n1)CN(C)CC2 [Example 55, (1r,4r)-4-(6-((6-methoxy-2-methyl-1,2,3,4-tetrahydroisoquinolin-7-yl)amino)-1H-pyrazolo[3,4-d]pyrimidin-1-yl)-N,N-dimethylcyclohexane-1-carboxamide]
